# Experimental data from patent US20240082263A1, “PHARMACEUTICAL COMPOSITION FOR COMBINATION THERAPY COMPRISING MELATONIN AND PROSTAGLANDIN E2 FOR TREATING INTESTINAL EPITHELIAL INJURY AS AN ACTIVE INGREDIENT” (PUSAN NATIONAL UNIVERSITY INDUSTRY-UNIVERSITY COOPERATION …, priority 2022, published 2024).
# How the values were obtained:
# Type in all cases: cell-based
# [1] = test system: Mouse-derived small intestinal epithelial organoids; assay: Microarray gene expression of revival stem cell markers in organoids; settings: melatonin 500 μm, PGE2 100 nM, alone or in combination, 5 days
# Experimental: (§1) Mouse-derived small intestinal epithelial organoids were obtained as follows. First, small intestine tissue (duodenum about 10-15 cm) was isolated from 8-week-old C57BL/6N mice, and the intestinal lumen was washed with PBS using a 1 ml pipette tip, and the tissue was opened with the lumen facing up, and the remaining mucus, food, and intestinal villi were scraped off and removed. Thereafter, about 25 ml of PBS was filled in a 50 ml tube, and the intestinal tissue was cut to a length of about 2 to 4 mm and washed by shaking vigorously (repeated about 3 to 4 times). The washed intestinal tissue was suspended in 20 ml of Gentle cell dissociation reagent (100-0485, stemcell technologies) and reacted for 15 to 20 minutes while shaking at 20 rpm at room temperature. After the reaction was completed, crypts were separated from the intestinal tissue by vortexing at maximum speed for 5 seconds, and the tissue was removed and centrifuged at 290 g for 5 minutes. The collected cell pellet was resuspended in 10 ml of PBS, centrifuged at 290 g for 5 minutes, and then the cell pellet was suspended in DMEM/F12 medium to confirm the number of crypts. About 500 crypts per 24 well are mixed with 20 μl of cell culture medium (IntestiCult™ Organoid Growth Medium for Mouse, 05005, stemcell technologies) and 20 μl of Matrigel (354230, corning), planted in a dome shape in the center of the well, and placed in a cell culture incubator. After standing for 10 minutes and waiting for the gel to harden, 750 μl of IntestiCult was added and cultured.
# The obtained mouse-derived small intestinal epithelial organoids were treated with melatonin (500 μm, 14427, Cayman) and PGE2 (prostaglandin E2, 100 nM; 14010, Cayman) alone or in combination for 5 days, and microarray was performed to track gene expression changes. RNA was extracted from the organoids using the RNeasy Kit (Qiagen), cDNA was synthesized using the GeneChip WT (Whole Transcript) Amplification kit, and analyzed using the Clariom™ S Affymetrix GeneChip Array (Affymetrix).
# [2] = test system: Human-derived intestinal epithelial organoids; assay: Quantitative PCR of Clusterin (CLU) expression in organoids; settings: same concentrations as in the mouse experiment, FIG. 3
# Experimental: Human-derived intestinal epithelial organoids were treated with melatonin and its analogues and PGE2 to confirm whether revival stem cells were induced as observed in mouse intestinal organoids. In order to obtain intestinal epithelial organoids, donated human colon tissue was cut into a size of about 1 cm 2, placed in PBS containing gentamicin (10 μg/ml, Gibco), and allowed to stand at 4° C. for 30 minutes. Then, the tissue was taken out and the mucous layer was scraped off using forceps, and the process of shaking and washing in PBS was repeated 5 to 6 times, as in the case of mice. After washing, the tissue was put into 25 ml of Gentle cell dissociation reagent and reacted by shaking at 200 rpm for 20 minutes at 37° C. After vortexing at the maximum speed, the crypts were separated and cultured by washing in the same process as in mice. At this time, IntestiCult™ Organoid Growth Medium for Human (06010, stemcell technologies) was used as the culture medium. The obtained human intestinal epithelial organoids were treated alone or in combination with melatonin, 8M-PDOT, and PGE2 at the same concentrations as in the mouse experiment, and then the expression level of Clusterin (CLU) was compared through quantitative PCR. […]
# [3] = test system: mouse small intestine epithelial organoids; assay: Flow cytometry of Ly6a-expressing cells in organoids; settings: FIG. 2; for effect of receptor inhibitor on induction of revival stem cells: co-treated to PGE2 alone group and 8M-PDOT and PGE2 combined group, L-161,982 10 μM, PF-04418948 20 μM; for revival stem cell induction (ratio of Ly6a-expressing cells): flow cytometry, 2-iodomelatonin 200 μM, 8M-PDOT 200 μM, Butaprost 10 μM, Cay10598 10 μM, 5 days
# Experimental: as §1
# In addition, changes in the percentage of cells expressing Ly6a, a specific marker for revival stem cells, were evaluated by flow cytometry. For flow cytometry, mouse small intestine epithelial organoids were treated with melatonin (500 μM) and PGE2 (100 nM) alone or in combination for 5 days, and the organoids were reacted with TrypLE™ Express Enzyme (Thermo Fisher) for 5 minutes at 37° C. to produce single cells. Thereafter, the Ly6a antibody (12-5981-82, Thermo Fisher) fluorescently labeled with PE was diluted 1:250 in PBS containing 3% BSA, and 200 μl of the diluted solution was mixed with the single celled sample and allowed to stand in a dark room at 4° C. for 1 hour. Then, each sample was washed with PBS (300 g, centrifuged for 5 minutes) and immediately analyzed with an Accuri C6 flow cytometer.
# In order to further specify the mechanism of inducing revival stem cells, mouse-derived intestinal epithelial organoids were treated with a combination of various melatonin analogues and a specific agonist of the PGE2 receptor. […]
SMILES,Cldn4 expression FC (fold change) vs control [1],Clu expression FC (fold change) vs control [1],Ly6a expression FC (fold change) vs control [1],effect of receptor inhibitor on induction of revival stem cells [3],revival stem cell induction (ratio of Ly6a-expressing cells) [3],other results
"CCCCC[C@H](O)/C=C/[C@H]1[C@H](O)CC(=O)[C@@H]1C/C=C\CCCC(=O)O [PGE2, prostaglandin E2]",1.9264,1.7590,9.7349,,,CLU expression [2]: increased
COc1ccc2[nH]cc(CCNC(C)=O)c2c1 [melatonin],1.0013,1.2252,1.1646,,,
COc1ccc2cc(OCC3(C(=O)O)CN(C(=O)c4ccc(F)cc4)C3)ccc2c1 [PF-04418948],,,,no effect,,
"CCCCc1nn(-c2ccccc2C(F)(F)F)c(=O)n1Cc1ccc(-c2ccccc2S(=O)(=O)NC(=O)c2sccc2C)cc1 [L-161,982]",,,,greatly suppressed,,
CCCC1([C@H](O)C/C=C/[C@H]2[C@H](O)CC(=O)[C@@H]2CCCCCCC(=O)OC)CCC1 [Butaprost],,,,,did not show a specific induction effect,
O=C1CC[C@H](/C=C/[C@@H](O)Cc2ccccc2)N1CCCCCCc1nn[nH]n1 [Cay10598],,,,,induction effect similar to or higher than that of PGE2,
